Consider ten compounds from US10342796B2, “Acrylanilide derivative, preparation method, and applications thereof in pharmacy” (Ancureall Pharmaceutical (Shanghai) Co., Ltd., priority 2015, dated 2019).

Molecules are shown by their SMILES.

Common to all, as to test: Growth inhibition GI50 in vitro (CCK8/MTT, 72 h)
Format in all cases: cell-based, human

Assay [1] has as its system SK-BR-3 (Her2 amp). The conditions noted are these: Homo sapiens, SK-BR-3; HER2 positive cell line; range of GI50; read-out: GI50 SK-BR-3. On the procedure:
Human lung adenocarcinoma cell line Calu-3 (ATCC) was cultured with 1×MEM complete medium (10% FBS, 1% double-antibiotics, 1% NEAA (Gibco), 2 mM glutamine and 1 mM of sodium pyruvate). Human breast cancer cell line SK-BR-3 was cultured with McCOY'S5A complete medium (10% FBS). Human colon cancer cell line SNU1040 (HER2 V777M positive) (ATCC) and human bronchoalveolar adenocarcinoma cell line NCI-H1781 (expressing HER2 exon 20 G776VC mutation) (ATCC) were cultured with 1×RPMI1640 complete medium (10% FBS), respectively.
The suspension cells were collected by centrifugation. The supernatant was discard and the cell pellet was resuspended and counted. Different cell concentrations (5˜10×10^4 cells/mL) were prepared according to the growth cycle of each cell line and then seeded on a 96-well plate (Corning), 100 μL/well. The cells were incubated over night at 37° C., 5% CO2. The compounds were added to the cells on the second day with 2 wells in parallel. The final concentration of organic solvent shall not exceed 1%. The cells were continually incubated for 72 h, and then subjected to MTT assay.
The present compounds and the reference compounds were dissolved with DMSO (Sigma), respectively. […] The storage concentration of compounds was 10 mM and kept at −20° C. They were diluted by 2 times or 10 times with serial dilution before using.
Dojindo CCK8 reagent kit was used as MTT assay. […] FC meter was used as microplate reader.
Adherent cell culture medium was discard and immediately replaced with fresh prepared medium which contains 10% CCK8 reagent (100 μL/well). For the suspension cells, CCK8 was directly added to 10% of the final concentration. The cells were continually incubated for 1˜4 h. When the color of control wells turned to dark yellow, the absorption value was measured at OD450 nm. The cell growth rate was calculated according to the following formula: cell growth rate (%)=100*(T−T0)/(C−T0), T=optical density of drug treatment cell well—optical density of blank control well; T0=optical density of cell well before drug treatment—optical density of blank control well; C=optical density of cell well of solvent control group—optical density of blank control well. […] The experiment was independently repeated 1˜3 times, and subject to biological statistical analysis.

The subject of assay [2] is A431 (EGFR WT, amplification and high expression). Particulars: Homo sapiens, A-431; EGFR wild type cell line; range of GI50; read-out: GI50 A431.
Assay [3] concerns H1299 (EGFR wt, Nras Q61K). Particulars: Homo sapiens, NCI-H1299; EGFR wild type cell line; range of GI50; read-out: GI50 H1299.
The subject of assay [4] is H460 (EGFR wt, Kras G61H). The conditions noted are these: Homo sapiens, NCI-H460; EGFR wild type cell line; range of GI50; read-out: GI50 H460.
The subject of assay [5] is A549 (EGFR WT). Particulars: Homo sapiens, A549; EGFR wild type cell line; range of GI50; read-out: GI50 A549.
In assay [6] the test system is N87 (HER2 Amp). Particulars: Homo sapiens; HER2 positive cell line; range of GI50; read-out: GI50 N87.
For assay [7], the system named is HCC827 (EGFR dE746-A750). Particulars: Homo sapiens, HCC827; EGFR mutant cell line; range of GI50; read-out: GI50 HCC827.
For assay [8], the system named is H1975 (EGFR L858R/T790M). Particulars: Homo sapiens, NCI-H1975; EGFR mutant cell line; range of GI50; read-out: GI50 H1975.
The test system of assay [9] is PC-9 (EGFR dE746-A750). Particulars: Homo sapiens; EGFR mutant cell line; range of GI50; read-out: GI50 PC-9.
Assay [10] concerns PC-9ER (EGFR delE746-A750/T790M). Particulars: Homo sapiens, PC-9/ER; EGFR mutant cell line; range of GI50; read-out: GI50 PC9ER.
The subject of assay [11] is AU565 (Her2 amp). The conditions noted are these: Homo sapiens, AU565; HER2 positive cell line; range of GI50; read-out: GI50 AU-565.

Consider `C=CC(=O)Nc1cc(Nc2cc(-c3cn(C)c4ccccc34)ncn2)c(OC)cc1N(C)CCN1CCCC1` [Compound 178, N-(4-methoxyl-5-(6-(1-methyl-1H-indol-3-yl)-pyrimidin-4-ylamino)-2-(methyl-(2-pyrrolidin-1-yl-ethyl)-amino)-phenyl)-acrylamide], for which the GI50 in [1] is 100 to 1000 nM; in assay [2], 100 to 1000 nM; in assay [3] it was above 1000 nM; in assay [4] it was above 1000 nM; in assay [5], above 1000 nM; in assay [6], 10 to 100 nM. Further, the GI50 in [7] is below 10 nM; in assay [8] it was 10 to 100 nM; in [9], below 10 nM; in assay [10] it was 10 to 100 nM; in [11], 100 to 1000 nM.
Turning to `C=CC(=O)Nc1cc(Nc2cc(-c3cn(C)c4ccccc34)ncn2)c(OC)cc1N1CCN(CCN2CCCC2)CC1` [Compound 165, N-(4-methoxyl-5-(6-(1-methyl-1H-indol-3-yl)-pyrimidin-4-ylamino)-2-(4-(2-(pyrrolidin-1-yl)-ethyl)-piperazin-1-yl)-phenyl)-acrylamide], the GI50 was 100 to 1000 nM in [1]; 10 to 100 nM in assay [2]; above 1000 nM in assay [3]; above 1000 nM in assay [4]; above 1000 nM in assay [5]; 100 to 1000 nM in assay [6]. The GI50 in assay [7] was 10 to 100 nM; in assay [8], 100 to 1000 nM; in [9], below 10 nM; in [10] it was 10 to 100 nM; in [11], 100 to 1000 nM.
With `C=CC(=O)Nc1cc(Nc2cc(Nc3cc(F)cc(Br)c3)ncn2)c(OC)cc1N(C)CCN(C)C` [Compound 139, N-(5-(6-(3-bromo-5-fluoro-phenylamino)-pyrimidin-4-ylamino)-2-((2-dimethylamino-ethyl)-methyl-amino)-4-methoxyl-phenyl)-acrylamide], the GI50 was below 10 nM in [1]; 100 to 1000 nM in [2]; above 1000 nM in assay [3]; above 1000 nM in assay [4]; above 1000 nM in assay [5]; below 10 nM in [6]. The GI50 in assay [7] is below 10 nM; in assay [8], 10 to 100 nM; in assay [9], below 10 nM; in assay [10] it was below 10 nM; in assay [11] it was below 10 nM.
With `C=CC(=O)Nc1cc(Nc2nccc(Nc3cc(OC)c(Cl)cc3Cl)n2)c(OC)cc1N(C)CCN(C)C` [Compound 16, N-(5-(4-(2,4-dichloro-5-methoxyphenyl-amino)-pyrimidin-2-ylamino)-2-(2-(dimethylamino-ethyl)-methyl-amino)-4-methoxyl-phenyl)-acrylamide], the GI50 in assay [1] was 100 to 1000 nM; in [2], above 1000 nM; in assay [3], above 1000 nM; in [4], above 1000 nM; in assay [5], above 1000 nM; in assay [6], 100 to 1000 nM. Besides, the GI50 in [7] lay in the range of 10 to 100 nM; in assay [8], 10 to 100 nM; in assay [9] it was 10 to 100 nM; in assay [10], 10 to 100 nM; in assay [11], 100 to 1000 nM.
For `C=CC(=O)Nc1cc(Nc2cc(-c3cn(C)c4cc(F)ccc34)ncn2)c(OC)cc1N(C)CCN(C)C` [Compound 186, N-(4-methoxyl-5-(6-(6-fluoro-1-methyl-1H-indol-3-yl)-pyrimidin-4-ylamino)-2-(2-(dimethylamino-ethyl)-methyl-amino)-phenyl)-acrylamide], the GI50 in [1] was 10 to 100 nM; in assay [2], 100 to 1000 nM; in assay [3], above 1000 nM; in assay [4], above 1000 nM; in assay [5], above 1000 nM; in assay [6], 10 to 100 nM. The GI50 in [7], in assay [8], in [9], in assay [10] and in assay [11] was 10 to 100 nM throughout.
On to `C=CC(=O)Nc1cc(Nc2nccc(Nc3ccc(OCc4ccccn4)c(Cl)c3)n2)c(OC)cc1N1CCC(N(C)C)CC1` [Compound 28], for which the GI50 in assay [1] was 10 to 100 nM; in assay [2], 100 to 1000 nM; in assay [3] it was above 1000 nM; in [4], above 1000 nM; in assay [5], above 1000 nM; in assay [6], 10 to 100 nM. Further, the GI50 in assay [7], in assay [8], in assay [9], in assay [10] and in [11] was 10 to 100 nM throughout.
Consider `C=CC(=O)Nc1cc(Nc2cc(Nc3ccc(F)c(Cl)c3)ncn2)c(OC)cc1N1CCN(C)CC1` [Compound 145, N-(5-(6-(3-chloro-4-fluoro-phenylamino)-pyrimidin-4-ylamino)-4-methoxyl-2-(4-methyl-piperazin-1-yl)-phenyl)-acrylamide], for which the GI50 is 10 to 100 nM in [1]; 10 to 100 nM in assay [2]; above 1000 nM in assay [3]; above 1000 nM in assay [4]; above 1000 nM in assay [5]; below 10 nM in assay [6]. Besides, the GI50 is below 10 nM in [7]; 10 to 100 nM in assay [8]; below 10 nM in assay [9]; below 10 nM in [10]; 10 to 100 nM in assay [11].
In the case of `C=CC(=O)Nc1cc(Nc2cc(-c3cn(CCC)c4ccccc34)ncn2)c(OC)cc1N(C)CCN(C)C` [Compound 182], the GI50 in assay [1] was 10 to 100 nM; in assay [2], 100 to 1000 nM; in [3] it was above 1000 nM; in assay [4] it was above 1000 nM; in assay [5], above 1000 nM; in assay [6], 100 to 1000 nM. Further, the GI50 in assay [7], in assay [8], in assay [9], in assay [10] and in assay [11] was 10 to 100 nM throughout.
Consider `C=CC(=O)Nc1cc(Nc2nccc(-n3ccc4ccc(C#N)cc43)n2)c(OC)cc1N(C)CCN(C)C` [Compound 60, N-{5-[4-(6-cyano-indol-1-yl)-pyrimidin-2-ylamino]-2-[(2-dimethylamino-ethyl)-methyl-amino]-4-methoxyl-phenyl}-acrylamidel], for which the GI50 in [1] was 100 to 1000 nM; in [2], above 1000 nM; in assay [3], above 1000 nM; in assay [4] it was above 1000 nM; in assay [5] it was above 1000 nM; in assay [6], 100 to 1000 nM. Besides, the GI50 in assay [7], in assay [8], in assay [9], in assay [10] and in assay [11] was 100 to 1000 nM each time.
As to `C=CC(=O)Nc1cc(Nc2nccc(-n3ccc4cc(F)ccc43)n2)c(OC)cc1N(C)CCN(C)C` [Compound 83], the GI50 is 100 to 1000 nM in assay [1]; 100 to 1000 nM in assay [2]; above 1000 nM in assay [3]; above 1000 nM in assay [4]; above 1000 nM in assay [5]; 10 to 100 nM in assay [6]. The GI50 is below 10 nM in assay [7]; below 10 nM in [8]; 10 to 100 nM in assay [9]; 10 to 100 nM in [10]; 100 to 1000 nM in assay [11].
